According to patent publication US9782387B2, “Compositions and methods for treating hematological malignancies” (Tel HaShomer Medical Research Infrastructure and Services …, priority 2013, dated 2017):

Key:
RPMIS cells = test: Combination XTT assay, Chou-Talalay, RPMIS; format: cell-based, human; design: key: CI <1 synergism, =1 additive, >1 antagonism (Chou-Talalay); settings: 48 h
Procedure: (§1) Combinations of novel and/or conventional anti-MM agents may achieve higher clinical response rates than a single agent(s).
(§2) CI value <1, =1, >1 indicates synergism, additive effect, and antagonism, respectively, (n=3 independent experiments). The CI values were calculated by the Chou-Talalay method based on the median-effect equation and the classic isobologram equation [22], using compusyn computer software.

MM.1S cells = test: Combination XTT assay, Chou-Talalay, MM.1S; format: cell-based, human; design: key: CI <1 synergism, =1 additive, >1 antagonism (Chou-Talalay); settings: 48 h
Procedure: as §1, §2

[1] = Xenograft murine model, body weight and toxicity; format: in vivo; settings: 0.5 mg/kg i.p., during treatment
Procedure: (§3) Mice were monitored every 2-3 d for changes in body weight and tumor burden. Tumor volumes were measured by a caliper every alternate day and calculated using the following formula: length×width^2×0.5. Mice were sacrificed in accordance with institutional guidelines when tumors reached 1.5 cm^3 or if the mice appeared moribund, to prevent unnecessary morbidity to the mice. Following sacrifice, tumors were immediately collected and evaluated for induction of apoptosis and cell death by TdT-mediated dUTP nick end labeling (TUNEL) assay.

[2] = tested on: HS-5 bone marrow stromal cells; test: CFSE/PI FACS viability in co-culture, stromal cells; format: cell-based, human; settings: 48 h
Procedure: FIGS. 2A-D are graphs showing that STK405759 overcomes the growth stimulatory effect of BMSCs. IL-6 or IGF-1 on MM cell growth. FIG. 2A-B—RPMIS cells were stained with CFSE, co-cultured with HS-5 and exposed to STK405759 (70 nM) for 48 h. The cells were contrastained with PI to distinguish live from nonviable cells using FACS analysis. The values of the fraction of nonviable (CFSE^−PI^+) HS-5 cells within the entire population of HS-5 cells (CFSE^−) cultured alone or with RPMIS cells, and the fraction of (CFSE^+PI^+) RPMIS cells within the entire population of RPMIS cells (CFSE) cultured alone or with HS-5 cells are presented as a function of the STK405759 concentrations. FIGS. 2C-D—RPMIS cells were cultured for 48 hours at the indicated concentrations of STK405759 in the presence or absence of IL-6 (5 or 10 ng/ml) or IGF-1 (10 or 30 ng/ml). Data presented are from three independent experiments and presented as means±SE.
Since BMSC trigger and maintain MM cell homing, proliferation, and drug resistance, the present inventors have assessed whether MM cell sensitivity to STK405759 is attenuated by co-culture with bone marrow stromal cells. In order to quantify viability of MM cells cultured alone or co-cultured with HS-5 bone marrow stromal cells. MM cells were stained with CFSE. […]

[3] = tested on: peripheral blood mononuclear cells (PBMCs); test: Cell viability XTT assay, PBMCs; format: cell-based, human; settings: PBMC from the same patients and from healthy donors, 48 h
Procedure: (§4) MM cell lines were plated at a density of 2×10^4 cells per well in 96-wells and treated with different concentrations of STK405759. For patient samples, bone marrow aspirates from MM patients were collected, mononuclear cells were separated by Ficoll density gradient centrifugation and myeloma cells selected using CD138 microbeads (Miltenyi Biotec). Purified CD138^+ cells from patients were plated at a density of 2×10^4 cells per well and treated for 48 h with different concentrations of STK405759. Peripheral blood samples were processed by Ficoll density gradient centrifugation to isolate peripheral blood mononuclear cells (PBMCs). PBMCs were plated at 2×10^4 cells per well and exposed to different concentrations of STK405759 for 48 h. Cell viability was measured using XTT cell proliferation Kit (Biological Industries) according to manufacture instructions.

RPMIS MM cells = test: Xenograft murine model; format: in vivo, SCID mice; settings: 0.5 mg/kg i.p.; not reached after follow-up of 60 days; control 28 days
Procedure: RPMIS cells (7×10^6 mouse in 100 μl of PBS) were injected subcutaneously in SCID mice. Mice (n=10 per group) received STK405759 (0.5 mg/kg in 0.1 ml PBS) or control vehicle (0.1 ml PBS), by intraperitoneal (i.p.) administration once a day for 5 days. FIG. 6A—Tumor diameters were measured every 2-3 days with caliper, and tumor volumes were calculated using the formula of the volume of an ellipse: ½ (length×width^2). […] FIG. 6B—Kaplan-Meier analysis of overall survival confirmed that STK405759 increased survival compared with control mice. […] FIG. 6D—Induction of apoptosis and cell death in tumors excised from vehicle or STK405759 (0.5 mg/kg) treated animals are shown by TUNEL assay. Photomicrographs show apoptotic cells (brown) using light microscopy (×20 and ×40 magnification).
Male SCID mice (6-8 week old) were maintained in accordance with Institutional Animal Care Use Committee guidelines. […]
as §3, with “Mice were sacrificed in accordance with institutional guidelines when tumors reached 1.5 cm^3 or if the mice appeared moribund, to prevent unnecessary morbidity to the mice.” left out

[4] = tested on: human multiple myeloma (MM) cell lines; test: Cell viability XTT assay, MM cell lines; format: cell-based; settings: each MM cell line
Procedure: The following panel of human multiple myeloma (MM) cell lines was used: RPMI-S (ATCC® CCL-155), RPMI-LR5, RPMI-MR20, MM.1S (ATCC® CRL-2974). OPM1, OPM-2, U266 ATCC® TIB-196 and CAG. The human immortalized bone marrow stromal cell (BMSC) line HS-5 was obtained from ATCC® CRL-11882. MM cell lines were grown in RPMI and HS-5 in DMEM, supplemented with 10% fetal calf serum, 2 mM L-glutamine, 100 units/mL penicillin and 100 μg/mL streptomycin (Biological Industries, Beit Haemek, Israel), and incubated in a humidified atmosphere of 5% CO2 and 95% air at 37° C.
as §4, with “PBMCs were plated at 2×10^4 cells per well and exposed to different concentrations of STK405759 for 48 h.” left out, “instructions. […]” for “instructions.”

[5] = tested on: affinity-purified CD138+ cells from bone marrow samples of MM patients; test: Cell viability XTT assay, primary patient MM cells; format: cell-based, human; settings: 2 MM patients, 48 h
Procedure: as §4

CC(C)C[C@H](NC(=O)[C@H](Cc1ccccc1)NC(=O)c1cnccn1)B(O)O [BTZ, bortezomib]
Combination Index (RPMIS cells; STK405759 45 nM + BTZ 1 nM): 0.88 ± 0.02
Combination Index (RPMIS cells; STK405759 45 nM + BTZ 5 nM): 0.78 ± 0.08
Combination Index (MM.1S cells; STK405759 45 nM + BTZ 1 nM): 0.62 ± 0.14
Combination Index (MM.1S cells; STK405759 45 nM + BTZ 5 nM): 0.58 ± 0.02

C[C@@H]1C[C@H]2[C@@H]3CCC4=CC(=O)C=C[C@]4(C)[C@@]3(F)[C@@H](O)C[C@]2(C)[C@@]1(O)C(=O)CO [DEX, dexamethasone]
Combination Index (RPMIS cells; STK405759 45 nM + DEX 1 nM): 0.76 ± 0.06
Combination Index (RPMIS cells; STK405759 45 nM + DEX 5 nM): 0.84 ± 0.03
Combination Index (MM.1S cells; STK405759 45 nM + DEX 1 nM): 0.76 ± 0.15
Combination Index (MM.1S cells; STK405759 45 nM + DEX 5 nM): 0.63 ± 0.09

COc1cccc2c1C(=O)c1c(O)c3c(c(O)c1C2=O)C[C@@](O)(C(=O)CO)C[C@@H]3O[C@H]1C[C@H](N)[C@H](O)[C@H](C)O1 [DOXO, doxorubicin]
Combination Index (RPMIS cells; STK405759 45 nM + DOXO 10 nM): 1.44 ± 0.01
Combination Index (RPMIS cells; STK405759 45 nM + DOXO 30 nM): 1.63 ± 0.10
Combination Index (MM.1S cells; STK405759 45 nM + DOXO 10 nM): 1.30 ± 0.06
Combination Index (MM.1S cells; STK405759 45 nM + DOXO 30 nM): 1.54 ± 0.08

Nc1cccc2c1CN(C1CCC(=O)NC1=O)C2=O (stereo not shown) [LEN, lenalidomide]
Combination Index (RPMIS cells; STK405759 45 nM + LEN 5 μM): 0.77 ± 0.09
Combination Index (RPMIS cells; STK405759 45 nM + LEN 25 μM): 0.74 ± 0.05
Combination Index (MM.1S cells; STK405759 45 nM + LEN 5 μM): 0.62 ± 0.09
Combination Index (MM.1S cells; STK405759 45 nM + LEN 25 μM): 0.58 ± 0.09

CCCCCOC(=O)c1[nH]c2c(c1C)C(=O)CC(c1ccco1)C2 (stereo not shown) [STK405759]
changes in weight or other signs of potential toxicity [1]: No significant changes
viability of HS-5 stromal cells [2]: unaffected
cytotoxic effect on PBMC [3]: non responsive to the cytotoxic effect
median overall survival (RPMIS MM cells): > 60 days
IC50 [4]: < 44 nM
cytotoxic response of primary MM cells [5]: dose-dependent cytotoxic response
